Experimental findings from patent publication US9085608B2, “Treatment of biofilms” (LYTIX BIOPHARMA AS, priority 2008, dated 2015) are described below.

The subject of test [1] is Staphylococcus aureus PIA 9. In words: microbe, parasite or virus in culture. On the procedure:
(§1) Bacteria were grown overnight at 37° C. in cation adjusted Mueller-Hinton II Broth (MHIIB).
(§2) We determined the MICs of oxacillin, gentamicin, tetracycline, vancomycin and linezolid using E-test (AB Biodisk, Solna, Sweden) and MICs of rifampicin using broth microdilution assay. Breakpoints were interpreted according to EUCAST criteria. […] All 3 SAMPs are tripeptides with two arginine residues providing their cationic moieties (FIG. 1). The lipophilic bulk is provided by a modified tryptophane derivate. […] The molecular weights of the SAMPs are in the range of 700-800 Dalton.

In test [2] the test system is Staphylococcus aureus PIA90. As to the kind of experiment: microbe, parasite or virus in culture. The protocol: as §1, §2
The subject of test [3] is Staphylococcus epidermidis RP62A ATCC 35984. As to the kind of experiment: microbe, parasite or virus in culture. The protocol:
as §1, §2

Test [4] deals with Staphylococcus epidermidis TUH 08-16. In words: microbe, parasite or virus in culture. The protocol: as §1, §2
The test system of test [5] is Staphylococcus haemolyticus TUH 51-03. In words: microbe, parasite or virus in culture. The protocol: as §1, §2
In test [6] the test system is Staphylococcus haemolyticus TUH 51-07. As to the kind of experiment: microbe, parasite or virus in culture. On the procedure:
as §1, §2

Test [7] relates to six staphylococcal strains (2 S. epidermidis, 2 S. haemolyticus and 2 S. aureus). As to the kind of experiment: Susceptibility testing under planktonic growth condition, EUCAST breakpoints. The following applies: all 6 strains; EUCAST criteria. The class given is cell-based. On the procedure:
The six staphylococcal strains (2 S. epidermidis, 2 S. haemolyticus and 2 S. aureus) used in this study were selected based on their previously known biofilm forming capacity (Table 1).
as §1
We determined the MICs of oxacillin, gentamicin, tetracycline, vancomycin and linezolid using E-test (AB Biodisk, Solna, Sweden) and MICs of rifampicin using broth microdilution assay. Breakpoints were interpreted according to EUCAST criteria. We selected 3 different SAMPs (Compounds A, B and C; Lytix Biopharma, Tromsø, Norway—see FIG. 1) based on previously known antimicrobial activities, and determined their exact MICs with broth microdilution assay. All 3 SAMPs are tripeptides with two arginine residues providing their cationic moieties (FIG. 1). The lipophilic bulk is provided by a modified tryptophane derivate. The difference between the compounds is the size of the C-terminal modification; Compound A has the smallest and Compound B has the largest C-terminal modification (FIG. 1). The molecular weights of the SAMPs are in the range of 700-800 Dalton.

Another test relates to S. aureus PIA 90 biofilm. In words: Biofilm metabolic activity, Alamar blue reduction. The format is cell-based, Staphylococcus aureus. The protocol:
(§3) Biofilm formation was induced in 96-well flat bottom microtitre plates (Nunclon Surface, NUNC, Roskilde, Denmark). First, overnight cultures were diluted 1:100 in MHIIB (S. epidermidis and S. haemolyticus) or tryptic soy broth (TSB) with 5% glucose and 5% NaCl (S. aureus). Two hundred of this bacterial suspension (10^7 cfu/ml) was added to each well and incubated for 24 h at 37° C. After 24 h the wells were carefully washed twice with phosphate-buffered saline (PBS) to remove planktonic bacteria. The washing procedure was evaluated by measuring metabolic activity of the PBS with the Alamar blue method, described in detail below. […]
(§4) We quantified the metabolic activity of biofilm with a slightly modified method previously described by Pettit et al. in Antimicrob. […] After 1 h incubation at 37° C., absorbance was recorded at 570 and 600 nm using Versamax tuneable microplate reader (Molecular Devices, Sunnyvale, Calif., USA). […]
(§5) The percent reduction of AB was calculated according to the manufacturer's formula (Invitrogen, Carlsbad, USA). We calculated mean and standard deviations (SD) of all repeated measurements. Pearson's two-tailed correlation between the AB method and the CV method (FIG. 2) was calculated on averaged data from all 6 staphylococcal strains. […]
(Alamar Blue is a resazurin reagent that responds to reducing activity.)

Test [8] deals with S. haemolyticus TUH 51-07 biofilm. In words: Biofilm metabolic activity, Alamar blue reduction. The class given is cell-based, Staphylococcus haemolyticus. Conditions: 500 mg/L, 24 h. The protocol: as §3, §4, §5
Test [9] shares this test system. As to the kind of experiment: Biofilm imaging, LIVE/DEAD staining and confocal laser scanning microscopy. The format is cell-based, Staphylococcus haemolyticus. Conditions: 24 h treatment. On the procedure:
One ml aliquots of MHIIB-diluted overnight culture was used to grow S. haemolyticus TUH 51-07 biofilm on plastic coverslides (Thermanox, cellculture treated on one side, NUNC, Roskilde, Denmark) in 24-well dishes (Falcon 3047, Becton Dickinson, NJ, USA) for 24 h. The coverslides were then washed carefully with PBS, moved to a new plate and treated for 24 h with tetracycline 50 mg/L and 500 mg/L, vancomycin 50 mg/L and 500 mg/L, or Compound A 50 mg/L and 500 mg/L. The coverslides were washed again with […] and stained with a LIVE/DEAD kit (Invitrogen Molecular Probes, Eugene, Oreg., USA) following the manufacturer's instructions. This stain contains SYTO 9 (green fluorescent) and propidium iodide (PI; red fluorescent), both binding to DNA. When used alone, the SYTO 9 generally stains all bacteria in a population; both those with intact and those with damaged membranes. In contrast, PI penetrates only bacteria with damaged membranes, causing a reduction in the SYTO 9 stain green fluorescence when both dyes are present. We examined treated and untreated biofilms with a Leica TCS SP5 (Leica Microsystems CMS Gmbh, Mannheim, Germany) confocal laser scanning microscope (CLSM). Images were obtained using a 63×1.2 NA HCX PL APO water immersion lens. For detection of SYTO9 (green channel), we used the 488 nm line of the argon laser and a detection bandwidth of 495-515 nm. For PI detection (red channel), we used the 561 nm line and a detection bandwidth of 615-660 nm. The two fluorescent-signals were collected sequentially at 400 Hz. Image analyses and export was performed in Leica LAS AF version 1.8.2.

Test [10] has as its system 24 h old biofilm of 6 different staphylococcal strains. In words: Biofilm metabolic activity, Alamar blue reduction. The format is cell-based, S. epidermidis, S. haemolyticus, S. aureus. The following applies: 50 mg/L; mature biofilms from 4 out of the 6 strains tested.
Method: The washed biofilms were subjected to treatment with antibiotics or SAMPs at different concentrations. Stock solutions of the tetracycline (Sigma Aldrich), vancomycin (Alpharma) and linezolid (Pfizer) were diluted in MHIIB to 5 mg/L, 50 mg/L and 500 mg/L, and rifampicin (Sigma Aldrich) was diluted in MHIIB to 0.01 mg/L, 0.1 mg/L and 1 mg/L. Trifluoroacetate salts of the SAMPs were dissolved in sterile water and diluted to 5 mg/L, 50 mg/L and 500 mg/L in MHIIB. 200 μl of antibiotics or SAMPs, in different concentrations, were added to each well and incubated for 24 h at 37° C. Positive controls were untreated biofilms only added 200 μl MHIIB. Negative controls were only 200 μl MHIIB, with no bacteria added.
We quantified the metabolic activity of biofilm with a slightly modified method previously described by Pettit et al. in Antimicrob. […] Briefly, the wells were washed twice with PBS. We then added 250 μl MHIIB with 5% Alamar blue (AB; Invitrogen, Carlsbad, Calif., USA) to each well. AB is a redox indicator which both fluoresces and changes colour in response to chemical reduction. The extent of reduction is a reflection of bacterial cell viability. After 1 h incubation at 37° C., absorbance was recorded at 570 and 600 nm using Versamax tuneable microplate reader (Molecular Devices, Sunnyvale, Calif., USA). […] The highest and lowest value of each run was excluded from the analyses, and the remaining 18 values were averaged.
We defined two levels of antimicrobial suppression of metabolic activity.
The next test deals with S. aureus PIA9 biofilm. As to the kind of experiment: Biofilm metabolic activity, Alamar blue reduction. The format is cell-based, Staphylococcus aureus. On the procedure:
as §3, §4, §5

In brackets after ≈: the same amount, converted by molar mass. Entries after “also recorded” stand apart in the source; their conditions may differ.

With `CN(C)[C@@H]1C(=O)C(C(N)=O)=C(O)[C@@]2(O)C(=O)C3=C(O)c4c(O)cccc4[C@@](C)(O)[C@H]3C[C@@H]12` [TET, tetracycline], the MIC is 0.5 mg/L (≈ 1.13 µM) in [1] (planktonic, SA PIA 9); 0.5 mg/L (≈ 1.13 µM) in test [2] (planktonic, SA PIA90); 0.5 mg/L (≈ 1.13 µM) in test [3] (planktonic, SE RP62A ATCC 35984); 2 mg/L (≈ 4.5 µM) in test [4] (planktonic, SE TUH 08-16); 1 mg/L (≈ 2.25 µM) in test [5] (planktonic, SH TUH 51-03); 0.5 mg/L (≈ 1.13 µM) in test [6] (planktonic, SH TUH 51-07). Besides, the “susceptibility under planktonic growth” value in test [7] is reported as “susceptible; also recorded: sensitive”. The “suppression of metabolic activity (AB reduction)” value in the test with S. aureus PIA 90 biofilm is on record as “complete suppression”. Also, the “metabolic activity in biofilm assay” value in test [8] is “hardly any measurable metabolic activity”. The “LIVE/DEAD staining of biofilm cells (CLSM)” value in test [9] (500 mg/L) is “a significant part of the cells are still green; also recorded: still contained a significant number of living cells”.
On to `CN[C@H](CC(C)C)C(=O)N[C@H]1C(=O)N[C@@H](CC(N)=O)C(=O)N[C@H]2C(=O)N[C@H]3C(=O)N[C@H](C(=O)N[C@H](C(=O)O)c4cc(O)cc(O)c4-c4cc3ccc4O)[C@H](O)c3ccc(c(Cl)c3)Oc3cc2cc(c3O[C@@H]2O[C@H](CO)[C@@H](O)[C@H](O)[C@H]2O[C@H]2C[C@](C)(N)[C@H](O)[C@H](C)O2)Oc2ccc(cc2Cl)[C@H]1O` [VAN, vancomycin], for which the MIC turned out to be 2 mg/L (≈ 1.38 µM) in [1] (Staphylococcus aureus, PIA9); 2 mg/L (≈ 1.38 µM) in test [2] (Staphylococcus aureus, PIA90); 4 mg/L (≈ 2.76 µM) in test [3] (Staphylococcus epidermidis, ATCC35984); 2 mg/L (≈ 1.38 µM) in [4] (Staphylococcus epidermidis, TUH0816); 4 mg/L (≈ 2.76 µM) in test [5] (Staphylococcus haemolyticus, TUH5103); 2 mg/L (≈ 1.38 µM) in [6] (Staphylococcus haemolyticus, TUH5107). Further, in test [7], the “susceptibility under planktonic growth” value is given as “susceptible; also recorded: sensitive”. Further, the “suppression of metabolic activity (AB reduction)” value in [10] is reported as “strong suppression (A strong suppression was obtained if an agent, after adjusting for the negative control, at a certain concentration caused 75% reduction of AB compared to positive control)”. The resistance of biofilm result with S. aureus PIA9 biofilm was “completely resistant”. Further, the “LIVE/DEAD staining of biofilm cells (CLSM)” value in [9] (50 mg/L) is on record as “predominantly green cells; also recorded: most bacteria were not killed”.
